Results as given in US9090593B2, “Bicyclic compounds as Pim inhibitors” (AMGEN INC., priority 2010, dated 2015).
Read-outs that look alike come from different tables or passages of the source.

Legend:
[1] = target: T1, full length recombinant Pim-1 protein (Homo sapiens, UniProt P11309); assay: Pim-1 enzyme assay (HTRF, phosphorylation of biotinylated-BAD (S112) peptide); assay type: biochemical; details: enzyme assay, Pim-1; read-out: Pim_1_IC50
T1 construct: by full length recombinant Pim-1, Pim-2, or Pim-3 protein; hexahistidine tag followed by a thrombin cleavage site (N); made in house; host or cells: Sf9 (baculovirus) or E. coli (pET28)
Procedure, shortened: (§1)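 Recombinant full-length Pim-1 or Pim-2 was incubated with biotinylated BAD (S112) peptide in pH 7.0 Hepes buffer with BSA and DTT. After an EDTA stop, phosphopeptide was quantified by time-resolved FRET between a europium antibody and streptavidin-APC, and IC50 values came from 4-parameter logistic curves.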

[2] = target: T2, full length recombinant Pim-2 protein (Homo sapiens, UniProt Q9P1W9); assay: Pim-2 enzyme assay (HTRF, phosphorylation of biotinylated-BAD (S112) peptide); assay type: biochemical; details: enzyme assay, Pim-2; read-out: Pim2_IC50
T2 construct: by full length recombinant Pim-1, Pim-2, or Pim-3 protein; hexahistidine tag followed by a thrombin cleavage site (N); made in house; host or cells: Sf9 (baculovirus) or E. coli (pET28)
Procedure, shortened: as §1

[3] = target: T3, full length recombinant Pim-3 protein (Homo sapiens, UniProt Q86V86); assay: Pim-3 enzyme assay (HTRF, phosphorylation of biotinylated-BAD (S112) peptide); assay type: biochemical; details: read-out: Pim3 IC50
T3 construct: by full length recombinant Pim-1, Pim-2, or Pim-3 protein; purchased Millipore (UK)
Procedure, shortened: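 HTRF read-out, streptavidin-APC plus Eu-labelled anti-phospho-BAD (S112) antibody, measures BAD peptide phosphorylation by full-length recombinant Pim-3. Buffer: 60 mM Hepes pH 7.0, 2 mM DTT, 0.05% BSA; EDTA (3 mM) stop. Percent of control per well, IC50 by 4-parameter logistic fit.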

[4] = target: T4, Pim-1 stably transfected into the U2OS human osteogenic sarcoma line (Homo sapiens, UniProt P11309); assay: Pim cell assay, phospho-BAD normalized against total BAD, U2OS stably transfected with Pim-1; assay type: cell-based; details: read-out: Pim1_Cell_IC50
T4 construct: expressed in transfected cells; host or cells: U2OS human osteogenic sarcoma line
Procedure, shortened: (§2)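 Read-out is phospho-BAD relative to total BAD, by MSD electrochemiluminescence on lysates, expressed as % phosphoprotein = (2×phospho)/(phospho+total)×100. Engineered U2OS lines carrying stably transfected Pim-1 or Pim-2 received 10-point compound dilutions at 0.3% final DMSO after overnight culture at 37 °C; DMSO-only wells served as high control.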

[5] = target: T5, Pim-2 stably transfected into the U2OS human osteogenic sarcoma line (Homo sapiens, UniProt Q9P1W9); assay: Pim cell assay, phospho-BAD normalized against total BAD, U2OS stably transfected with Pim-2; assay type: cell-based; details: read-out: Pim2_Cell_IC50; also: high dose 31.6 µM
T5 construct: expressed in transfected cells; host or cells: U2OS human osteogenic sarcoma line
Procedure, shortened: as §2

[6] = U2OS cells stably transfected with Pim-1, phospho-BAD, high dose […]
[7] = U2OS cells stably transfected with Pim-2, phospho-BAD, high dose […]

T1 sequence (P11309 whole entry): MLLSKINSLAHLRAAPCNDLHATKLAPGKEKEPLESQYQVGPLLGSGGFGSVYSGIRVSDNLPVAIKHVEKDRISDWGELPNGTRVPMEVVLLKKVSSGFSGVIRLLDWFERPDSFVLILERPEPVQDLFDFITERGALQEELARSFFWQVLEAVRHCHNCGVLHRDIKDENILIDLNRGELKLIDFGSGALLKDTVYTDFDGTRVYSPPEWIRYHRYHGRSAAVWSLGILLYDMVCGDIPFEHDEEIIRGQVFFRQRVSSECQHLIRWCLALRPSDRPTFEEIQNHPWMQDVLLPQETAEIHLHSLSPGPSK
T4 sequence (P11309 whole entry): as above
T2 sequence (Q9P1W9 whole entry): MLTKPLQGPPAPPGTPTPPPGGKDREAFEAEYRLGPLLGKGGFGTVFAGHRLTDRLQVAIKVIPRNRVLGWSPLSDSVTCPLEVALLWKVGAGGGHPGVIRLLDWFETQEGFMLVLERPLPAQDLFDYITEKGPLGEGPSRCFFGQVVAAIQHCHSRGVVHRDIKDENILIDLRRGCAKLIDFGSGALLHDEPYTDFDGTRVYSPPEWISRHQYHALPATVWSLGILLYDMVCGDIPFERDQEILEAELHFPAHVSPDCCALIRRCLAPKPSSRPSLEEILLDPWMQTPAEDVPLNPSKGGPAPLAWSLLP
T5 sequence (Q9P1W9 whole entry): as above

| SMILES | IC50 [1] [nM] | IC50 [2] [nM] | IC50 [3] [nM] | IC50 [4, 6] [nM] | IC50 [5, 7] [nM] | IC50 [4] [nM] | IC50 [5] [nM] |
| --- | --- | --- | --- | --- | --- | --- | --- |
| NC1CCN(c2cncc(-c3n[nH]c4ccc(Br)cc34)n2)CC1 [Example 1, 1-(6-(5-bromo-1H-indazol-3-yl)pyrazin-2-yl)piperidin-4-amine] | 31 | 23 | 11 | 788 | 8730 |  |  |
| NC1CCN(c2cncc(-c3n[nH]c4ccc(-c5cc(C(=O)NC6CC6)ccc5F)cc34)n2)CC1 [Example 3, 3-(3-(6-(4-aminopiperidin-1-yl)pyrazin-2-yl)-1H-indazol-5-yl)-N-cyclopropyl-4-fluorobenzamide] | 8 | 13 | 9 | 3680 | 7390 |  |  |
| COc1cccc(-c2ccc3[nH]nc(-c4cncc(N5CCC(N)CC5)n4)c3c2)c1F [Example 4, 1-(6-(5-(2-fluoro-3-methoxyphenyl)-1H-indazol-3-yl)pyrazin-2-yl)piperidin-4-amine] | 2 | 35 | 4 | 234 | > 31600 |  |  |
| NC1CCN(c2cncc(-c3n[nH]c4ccc(-c5cccc(F)c5)cc34)n2)CC1 [Example 7, 1-(6-(5-(3-Fluorophenyl)-1H-indazol-3-yl)pyrazin-2-yl)piperidin-4-amine] | 4 | 25 | 3 | 748 | > 31600 |  |  |
| NC1CCN(c2cncc(-c3n[nH]c4ccc(N5CCCC5=O)cc34)n2)CC1 [Example 8, 1-(3-(6-(4-Aminopiperidin-1-yl)pyrazin-2-yl)-1H-indazol-5-yl)pyrrolidin-2-one] | 12 | 41 | 6 | 2440 | > 31600 |  |  |
| COc1cc(-c2ccc3[nH]nc(-c4cncc(N5CCC(N)CC5)n4)c3c2)nc(OC)n1 [Example 9, 1-(6-(5-(2,6-dimethoxypyrimidin-4-yl)-1H-indazol-3-yl)pyrazin-2-yl)piperidin-4-amine] | 4 | 96 | 1 | 437 | > 31600 |  |  |
| CN(c1cncc(-c2n[nH]c3ccc(-c4c(F)cccc4F)cc23)n1)C1CCNCC1 [Example 17, 6-(5-(2,6-Difluorophenyl)-1H-indazol-3-yl)-N-methyl-N-(piperidin-4-yl)pyrazin-2-amine] | 5 | 43 | 4 | 424 | 11000 |  |  |
| NC1CCCN(c2cncc(-c3c[nH]c4ccc(-c5c(F)cccc5F)cc34)n2)C1 (stereo not drawn) [Example 21, 1-(6-(5-(2,6-difluorophenyl)-1H-indol-3-yl)pyrazin-2-yl)piperidin-3-amine] | 3 | 98 | 5 | 1170 | > 31600 |  |  |
| NC1CCN(c2cncc(-c3c[nH]c4ccc(-c5c(F)cccc5F)cc34)n2)CC1 [Example 22, 1-(6-(5-(2,6-difluorophenyl)-1H-indol-3-yl)pyrazin-2-yl)piperidin-4-amine] | 2 | 18 | 5 | 439 | 7110 |  |  |
| Fc1cccc(F)c1-c1ccc2[nH]cc(-c3cncc(O[C@@H]4CCCNC4)n3)c2c1 [Example 23, (R)-5-(2,6-difluorophenyl)-3-(6-(piperidin-3-yloxy)pyrazin-2-yl)-1H-indole] | 2 | 9 | 4 | 228 | 5040 |  |  |
| Fc1cccc(F)c1-c1ccc2[nH]cc(-c3nccc(N[C@@H]4CCCNC4)n3)c2c1 [Example 24, (R)-2-(5-(2,6-difluorophenyl)-1H-indol-3-yl)-N-(piperidin-3-yl)pyrimidin-4-amine] | 18 | 87 | 23 |  |  | 497 | > 31600 |
| CC(C)Oc1cncc(-c2ccc3[nH]cc(-c4cncc(N[C@@H]5CCCNC5)n4)c3c2)n1 [Example 25, (R)-6-(5-(6-isopropoxypyrazin-2-yl)-1H-indol-3-yl)-N-(piperidin-3-yl)pyrazin-2-amine] | 4 | 198 | 15 |  |  | 405 | 24700 |
